In PMC12563652 (International Journal of Molecular Sciences, 2025):

What was measured:
[1] = target: α1-adrenoceptor; assay: Competitive radioligand binding, [3H]prazosin, rat cerebral cortex; conditions: n.a. = no activity at 10–5 M
Method: The competitive radioligand-binding assay assessed affinity for α1- and α2-adrenoceptors. Experiments were carried out in the rat cerebral cortex. […] The membrane preparation and assay technique followed the previously reported protocol. Radioactivity was measured using the MicroBeta2 scintillation counter (PerkinElmer, Kraków, Poland). The data was adjusted to match a single-site curve-fitting formula using Prism 8 (GraphPad Software, La Jolla, CA, USA), and the Ki values were estimated by means of the Cheng–Prusoff formula.

[2] = target: T1, α2B-adrenoceptor (Homo sapiens, UniProt P18089); assay: α2B-adrenoceptor intrinsic activity, antagonist mode (AequoScreen); type: cell-based; conditions: n.a. = no activity at 10–5 M; read-out: α2B Ant IC50
T1 sequence (P18089 1-450): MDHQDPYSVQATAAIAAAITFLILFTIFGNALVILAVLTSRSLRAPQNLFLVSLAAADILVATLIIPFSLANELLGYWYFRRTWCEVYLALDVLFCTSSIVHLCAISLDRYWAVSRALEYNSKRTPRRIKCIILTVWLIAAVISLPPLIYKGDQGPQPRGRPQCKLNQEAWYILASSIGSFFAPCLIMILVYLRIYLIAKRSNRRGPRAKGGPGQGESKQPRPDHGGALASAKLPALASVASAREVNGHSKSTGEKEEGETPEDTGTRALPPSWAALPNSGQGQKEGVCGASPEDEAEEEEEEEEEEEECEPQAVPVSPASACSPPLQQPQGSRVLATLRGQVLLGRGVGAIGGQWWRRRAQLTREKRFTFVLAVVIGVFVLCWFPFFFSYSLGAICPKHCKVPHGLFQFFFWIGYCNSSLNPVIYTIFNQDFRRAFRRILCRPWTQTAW
Method: The determination of intrinsic activity will be performed in accordance with the manufacturer’s Aequoscreen methodology—Perkin Elmer.
The cell density in the 96-well format was 5000 cells per well. Cell preparation for the assay was performed according to the manufacturer’s instructions for AequoScreen (PerkinElmer, Waltham, MA, USA). […] The cells suspension was applied onto the ligands with the injectors of the POLARstar optima reader (BMG Labtech, Ortenberg, Germany). […] The concentration and dilution series having four replicates were prepared as instructed in the AequoScreen Starter Kit Manual (PerkinElmer, Waltham, MA, USA). The wells received cell injections along with either the standard agonist or the compounds being evaluated, while the POLARstar optima reader documented the emitted light over a duration of 20 s. In the antagonist evaluation, cells were administered (50 μL) into the assay plate alongside antagonist solutions (50 μL). A single concentration of agonist (oxymetazoline) was injected (50 μL, final concentration EC80) into the preincubated (15–20 min) plate with cells and antagonist, and the emitted light was recorded for 20 s.

[3] = test system: HepG2 cells; assay: Glucose consumption (Amplex Red assay) in HepG2 cells; type: cell-based, human
Method: The HepG2 human hepatocellular carcinoma cell line (ATCC® HB-8065™) was cultured in DMEM supplemented with 10% FBS, 100 µg/mL streptomycin, and 100 IU/mL penicillin at 37 °C in 5% CO2. Cells were seeded in 96-well plates at a density of 10,000 cells/well and used for experiments 24 h after plating.
Stock solutions of test compounds were prepared at a concentration of 10 mM in dimethyl sulfoxide (DMSO). At least 1 mg of each substance was carefully measured and mixed with the right amount of DMSO. A series of dilutions were made in DMSO and then further diluted in phosphate-buffered saline before being introduced into the cell culture medium. Precipitation or opalescence was assessed prior to application.
The glucose uptake was measured with the Amplex® Red Glucose/Glucose Oxidase Assay Kit from Thermo Fisher Scientific, following the guidelines provided by the maker. Cell culture supernatants were collected and incubated with a reaction mix containing 100 μM Amplex® Red reagent, 0.2 U/mL horseradish peroxidase (HRP), and 1 U/mL glucose oxidase at room temperature for 30 min in the dark. Fluorescence was measured at 530 nm excitation and 590 nm emission using the POLARstar Omega plate reader (BMG Labtech).

[4] = test system: 3T3-L1 adipocytes; assay: Phospholipidosis, HCS LipidTOX imaging in 3T3-L1 adipocytes; type: cell-based, mouse
Method: The 3T3-L1 mouse embryonic fibroblast cell line (ATCC CRL-11605) was cultured according to the standard protocol in Dulbecco’s Modified Eagle Medium (DMEM) supplemented with 10% bovine calf serum, 100 µg/mL streptomycin, and 100 IU/mL penicillin, at 37 °C in a humidified atmosphere containing 5% CO2. Cells were seeded at a density of 10,000 cells/well in collagen type I–coated (10 µg/mL) 96-well plates and allowed to attach for 24 h. Differentiation was initiated by replacing the medium with induction medium composed of DMEM, 0.5 mM 3-isobutyl-1-methylxanthine (IBMX), 1 µM dexamethasone, and 10% fetal bovine serum (FBS). After 48 h (differentiation day 2), the medium was replaced with DMEM supplemented with 10% FBS and 10 µg/mL human recombinant insulin. After an additional 24 h, the medium was replaced with DMEM supplemented with 10% bovine calf serum, 100 µg/mL streptomycin, and 100 IU/mL penicillin. The medium was refreshed every 24 h for 10 consecutive days to allow full differentiation into adipocytes.
Lipid accumulation and phospholipidosis were evaluated using the HCS LipidTOX Phospholipidosis and Steatosis Detection Kit (Thermo Fisher Scientific). Cells were cultured in black, clear-bottom 96-well plates and treated as described. Next, cells were fixed with 4% paraformaldehyde (15 min), washed with PBS, and stained with LipidTOX Green Neutral Lipid Stain (for steatosis) and LipidTOX Red Phospholipidosis Detection Reagent, prepared according to the manufacturer’s instructions. Nuclei were counterstained with Hoechst 33342 (2 µg/mL). Image acquisition and quantitative analysis were performed using High Content Screening (HCS) technology on the ImageXpress XLS system (Molecular Devices). Lipid droplet and phospholipid content were quantified using automated image analysis pipelines.

[5] = test system: Danio rerio larvae; assay: Nile red fluorescence fat metabolism assay in zebrafish larvae; type: in vivo; conditions: 10 µg/mL, 48 h incubation of larvae
Method: The study was conducted based on the method described earlier by Jones et al.. Starting at 3 days after fertilization (dpf), larvae were placed into 6-well plates and incubated with the test solutions (compounds in E3: JP-14 at a concentration of 10 μg/mL or resveratrol or E3 alone) for 48 h. Resveratrol solution (20 μg/mL) was used as the reference compound. After 24 h, the solutions were replaced with new ones containing Nile red dye (9-diethylamino-5H-benzo[α]phenoxazine-5-one, Pol-aura, Poland) at a concentration of 100 ng/mL. Nile red is a selective fluorescent lipid dye used to stain lipid droplets. Incubation with the dye was therefore 24 h. Stock solution of Nile red was prepared earlier by dissolving it in acetone to a concentration of 500 μg/mL. After the incubation period, the larvae were rinsed 3 times with 0.1 M phosphate-buffered, pH 7.4 (PBS, Sigma-Aldrich, Schnelldorf, Germany) and anesthetized with cold […] tricaine solution (Sigma-Aldrich, Schnelldorf, Germany). Next, they were visualized under a fluorescence microscope (Zeiss.Discovery.V8, Zeiss, Oberkochen, Germany) and analyzed with ImageJ FIJI program (version 2.17.0).

[H]/N=C(\N)NN=Cc1c(Cl)cncc1Cl [JP-14, (E)-2-((3,5-Dichloropyridin-4-yl)Methylene)Hydrazine-1-Carboximidamide]
α1 Ki [1]: did not exhibit notable affinity
IC50 [2]: 622 nM
glucose-stimulating effect under TAAR1 blockade ([3]; 10 µM + RTI-7470-44 (40 nM)): substantially attenuated
increase in glucose consumption (uptake) ([3]; 10 µM, relative to vehicle-treated cells): 29%
effect on phospholipidosis under TAAR1 blockade ([4]; 10 µM + RTI-7470-44 (40 nM)): reversed
phospholipidosis (phospholipid accumulation) ([4]; 10 µM, vs vehicle): significantly reduced
Nile red detectable fat [5]: decrease
